The source made the active and inactive calls. The calls are words filed in the database; no cut-off is given here.
Experiments:
Human alphaherpesvirus 1 = assay: Antiviral activity against Herpes simplex virus type 1 infected in HeLa cells assessed as reduction in viral replication after 48 hrs; format: functional, organism-based
Aspergillus fumigatus = assay: Antifungal activity against Aspergillus fumigatus up to 100 ug/ml after 48 hrs by broth dilution method; format: functional, organism-based
Vero = assay: Cytotoxicity against african green monkey Vero cells after 48 hrs by MTT assay; format: cell-based; settings: chlorocebus sabaeus
[1] = Selectivity ratio of IC50 for african green monkey Vero cells to IC50 for human HeLa cells; format: ADME, cell-based; settings: Vero cells versus HeLa cells, read-out: Ratio IC50
Aspergillus niger = assay: Antifungal activity against Aspergillus niger up to 100 ug/ml after 48 hrs by broth dilution method; format: functional, organism-based
[2] = Selectivity ratio of IC50 for african green monkey Vero cells to IC50 for human Jurkat cells; format: ADME, cell-based; settings: Vero cells versus Jurkat cells, read-out: Ratio IC50
HeLa = assay: Cytotoxicity against human HeLa cells after 48 hrs by MTT assay; format: functional, cell-based
Jurkat [3] = assay: Cytotoxicity against human Jurkat cells after 48 hrs by MTT assay; format: functional, cell-based
Aspergillus flavus = assay: Antifungal activity against Aspergillus flavus up to 100 ug/ml after 48 hrs by broth dilution method; format: functional, organism-based
Aspergillus terreus = assay: Antifungal activity against Aspergillus terreus up to 100 ug/ml after 48 hrs by broth dilution method; format: functional, organism-based
PBMC [4] = assay: Induction of apoptosis in human PBMCs assessed as apoptotic cells at 14 ug/ml after 24 hrs by annexin V/PI-based flow cytometry; format: cell-based
Jurkat [5] = assay: Cell cycle arrest in human Jurkat cells assessed as hypoploidy at 14 ug/ml after 15 hrs by flow cytometry; format: functional
Jurkat [6] = assay: Induction of apoptosis in human Jurkat cells assessed as apoptotic cells at 14 ug/ml after 15 hrs by annexin V/PI-based flow cytometry; format: functional
Jurkat [7] = assay: Induction of apoptosis in human Jurkat cells assessed as DNA damage at 14 ug/ml after 15 hrs by TUNEL assay; format: functional
Monocyte [8] = assay: Reduction in LPS-induced IL-10 production in human monocytes at 5 to 15 ug/ml pretreated before LPS addition after 24 hrs by cytometric bead array method; format: functional, cell-based
Jurkat [9] = assay: Cell cycle arrest in human Jurkat cells assessed as accumulation at G2/M phase at 14 ug/ml after 24 hrs by flow cytometry; format: functional
Monocyte [10] = assay: Reduction in IL-1beta production in human monocytes at 5 to 15 ug/ml after 24 hrs by cytometric bead array method; format: functional, cell-based
Monocyte [11] = assay: Reduction in LPS-induced TNF-alpha production in human monocytes at 5 to 15 ug/ml pretreated before LPS addition after 24 hrs by cytometric bead array method; format: functional, cell-based
Monocyte [12] = assay: Reduction in LPS-induced IL-1beta production in human monocytes at 5 to 15 ug/ml pretreated before LPS addition after 24 hrs by cytometric bead array method; format: functional, cell-based
PBMC [13] = assay: Reduction in membrane potential in human PBMCs at 7 to 14 ug/ml after 15 to 24 hrs using DiOC6(3) by flow cytometry; format: ADME, cell-based
PBMC [14] = assay: Antiproliferative activity against PHA-stimulated human PBMCs assessed as CD69 expression pretreated at 1 to 14 ug/ml before PHA stimulation measured after 12 hrs by flow cytometry; format: cell-based
Jurkat [15] = assay: Cell cycle arrest in human Jurkat cells assessed as hypoploidy at 14 ug/ml after 24 hrs by flow cytometry; format: functional
Jurkat [16] = assay: Reduction in membrane potential in human Jurkat cells at 14 ug/ml after 24 hrs using DiOC6(3) by flow cytometry; format: functional
Jurkat [17] = assay: Induction of apoptosis in human Jurkat cells assessed as apoptotic cells at 14 ug/ml after 24 hrs by annexin V/PI-based flow cytometry; format: functional
PBMC [18] = assay: Induction of apoptosis in human PBMCs assessed as apoptotic cells at 14 ug/ml after 15 hrs by annexin V/PI-based flow cytometry; format: cell-based
PBMC [19] = assay: Antiproliferative activity against PHA-stimulated human PBMCs assessed as CD69 expression at 1 to 14 ug/ml treated post PHA stimulation measured after 12 hrs by flow cytometry; format: cell-based
Monocyte [20] = assay: Reduction in TNF-alpha production in human monocytes at 5 to 15 ug/ml after 24 hrs by cytometric bead array method; format: functional, cell-based
Jurkat [21] = assay: Cell cycle arrest in human Jurkat cells assessed as accumulation at G2/M phase at 14 ug/ml after 15 hrs by flow cytometry; format: functional
[22] = Antiproliferative activity against PHA-stimulated human CD8+ T cells at 7 to 14 ug/ml after 72 hrs by CFSE fluorescence staining-based flow cytometry; settings: t-cell
Jurkat [23] = assay: Induction of apoptosis in human Jurkat cells assessed as DNA damage at 14 ug/ml after 24 hrs by TUNEL assay; format: functional
Jurkat [24] = assay: Reduction in membrane potential in human Jurkat cells at 7 ug/ml after 15 to 24 hrs using DiOC6(3) by flow cytometry; format: functional, cell-based
PBMC [25] = assay: Effect on cell cycle distribution in human PBMCs assessed as hypoploidy at 14 ug/ml after 15 to 24 hrs by flow cytometry; format: ADME, cell-based
Jurkat [26] = assay: Reduction in membrane potential in human Jurkat cells at 14 ug/ml after 15 hrs using DiOC6(3) by flow cytometry; format: functional
Jurkat [27] = assay: Cell cycle arrest in human Jurkat cells assessed as decrease in G0/G1 phase at 14 ug/ml after 15 to 24 hrs by flow cytometry; format: functional, cell-based
PBMC [28] = assay: Effect on cell cycle distribution in human PBMCs at 14 ug/ml after 15 to 24 hrs by flow cytometry; format: ADME, cell-based
PBMC [29] = assay: Antiproliferative activity against human PBMCs at 7 to 14 ug/ml after 48 hrs by CFSE fluorescence staining-based flow cytometry; format: cell-based
Jurkat [30] = assay: Effect on membrane integrity in human Jurkat cells; format: functional, cell-based
Monocyte [31] = assay: Reduction in IL-10 production in human monocytes at 5 to 15 ug/ml after 24 hrs by cytometric bead array method; format: functional, cell-based
Monocyte [32] = assay: Inhibition of differentiation of LPS-stimulated human monocytes assessed as reduction in expression of HLA-DR at 5 to 15 ug/ml after 120 hrs by fluorescence assay; format: functional, cell-based
[33] = Antiproliferative activity against PHA-stimulated human CD4+ T cells at 7 to 14 ug/ml after 72 hrs by CFSE fluorescence staining-based flow cytometry; settings: t-cell
PBMC [34] = assay: Effect on membrane integrity in human PBMCs; format: ADME, cell-based
[35] = Antiproliferative activity against PHA-stimulated human CD8+ T cells at 14 ug/ml after 72 hrs by CFSE fluorescence staining-based flow cytometry; settings: t-cell
PBMC [36] = assay: Reduction in membrane potential in human PBMCs at 14 ug/ml after 15 hrs using DiOC6(3) by flow cytometry; format: ADME, cell-based; design: scale not given: the % may be the effect or the level left
PBMC [37] = assay: Antiproliferative activity against human PBMCs at 7 ug/ml after 48 hrs by CFSE fluorescence staining-based flow cytometry; format: cell-based
[38] = Antiproliferative activity against PHA-stimulated human CD4+ T cells at 14 ug/ml after 72 hrs by CFSE fluorescence staining-based flow cytometry; settings: t-cell
PBMC [39] = assay: Reduction in membrane potential in human PBMCs at 14 ug/ml after 24 hrs using DiOC6(3) by flow cytometry; format: ADME, cell-based; design: scale not given: the % may be the effect or the level left
PBMC [40] = assay: Antiproliferative activity against human PBMCs at 14 ug/ml after 48 hrs by CFSE fluorescence staining-based flow cytometry; format: cell-based

COC(=O)[C@]1(C)CCC[C@]2(C)c3ccc(C(C)C)c(O)c3CC[C@@H]12
Activity (Human alphaherpesvirus 1): inactive
Activity (Aspergillus fumigatus): inactive
inhibition (INH) (Vero): Dose-dependent effect
selectivity ratio [1]: 1.9
Activity (Aspergillus niger): inactive
selectivity ratio [2]: 2.59
inhibition (HeLa): Dose-dependent effect
inhibition (Jurkat [3]): Dose-dependent effect
Activity (Aspergillus flavus): inactive
Activity (Aspergillus terreus): inactive

COC(=O)[C@]1(C)CCC[C@]2(C)C3=C(CC[C@@H]12)C(=O)C(C(C)C)=CC3=O
Activity (Human alphaherpesvirus 1): inactive
Activity (Aspergillus fumigatus): inactive
inhibition (INH) (Vero): Dose-dependent effect
selectivity ratio [1]: 1.23
Activity (Aspergillus niger): inactive
selectivity ratio [2]: 2.34
inhibition (HeLa): Dose-dependent effect
inhibition (Jurkat [3]): Dose-dependent effect
Activity (Aspergillus flavus): inactive
Activity (Aspergillus terreus): inactive

CC(C)C1=CC(=O)C2=C(CC[C@H]3[C@](C)(C(=O)O)CCC[C@]23C)C1=O
Activity (PBMC [4]): Toxic
Activity (Human alphaherpesvirus 1): inactive
Activity (Jurkat [5]): inactive
Activity (Jurkat [6]): Active
Activity (Jurkat [7]): inactive
Activity (Monocyte [8]): Active
Activity (Jurkat [9]): inactive
Activity (Monocyte [10]): inactive
Activity (Aspergillus fumigatus): inactive
Activity (Monocyte [11]): Active
inhibition (INH) (Vero): Dose-dependent effect
Activity (Monocyte [12]): Active
Activity (PBMC [13]): Non-toxic
Activity (PBMC [14]): Non-toxic
selectivity ratio [1]: 4.74
Activity (Jurkat [15]): inactive
Activity (Aspergillus niger): inactive
Activity (Jurkat [16]): inactive
Activity (Jurkat [17]): Active
Activity (PBMC [18]): Toxic
Activity (PBMC [19]): Non-toxic
Activity (Monocyte [20]): inactive
Activity (Jurkat [21]): inactive
selectivity ratio [2]: 8.96
Activity [22]: Non-toxic
Activity (Jurkat [23]): inactive
Activity (Jurkat [24]): inactive
Activity (PBMC [25]): Non-toxic
Activity (Jurkat [26]): inactive
inhibition (HeLa): Dose-dependent effect
inhibition (Jurkat [3]): Dose-dependent effect
Activity (Jurkat [27]): inactive
Activity (Aspergillus flavus): inactive
Activity (PBMC [28]): Non-toxic
Activity (PBMC [29]): Non-toxic
Activity (Jurkat [30]): inactive
Activity (Monocyte [31]): inactive
Activity (Monocyte [32]): Active
Activity [33]: Non-toxic
Activity (PBMC [34]): Non-toxic
Activity (Aspergillus terreus): inactive

CC(C)c1ccc2c(c1O)CC[C@H]1[C@](C)(C(=O)O)CCC[C@]21C
Activity (Human alphaherpesvirus 1): inactive
Activity (Aspergillus fumigatus): inactive
inhibition (INH) (Vero): Dose-dependent effect
selectivity ratio [1]: 0.77
Activity (Aspergillus niger): inactive
selectivity ratio [2]: 3.09
inhibition (HeLa): Dose-dependent effect
inhibition (Jurkat [3]): Dose-dependent effect
Activity (Aspergillus flavus): inactive
Activity (Aspergillus terreus): inactive

CC(C)C1=CC(=O)C2=C(CC[C@H]3[C@](C)(CO)CCC[C@]23C)C1=O
Activity (PBMC [4]): 90%
Activity (Human alphaherpesvirus 1): inactive
Activity [35]: 77%
Activity (PBMC [36]): 20%
Activity (Jurkat [5]): 12%
Activity (Jurkat [6]): 26%
Activity (Jurkat [7]): 10%
Activity (Monocyte [8]): Active
Activity (Jurkat [9]): 15%
Activity (Monocyte [10]): inactive
Activity (Aspergillus fumigatus): inactive
Activity (Monocyte [11]): Active
inhibition (INH) (Vero): Dose-dependent effect
Activity (Monocyte [12]): Active
Activity (PBMC [14]): Non-toxic
selectivity ratio [1]: 1
Activity (Jurkat [15]): 35%
Activity (Aspergillus niger): inactive
Activity (Jurkat [16]): 25%
Activity (Jurkat [17]): 86%
Activity (PBMC [37]): 77%
Activity (PBMC [18]): 75%
Activity (PBMC [19]): Non-toxic
Activity (Monocyte [20]): inactive
Activity (Jurkat [21]): 13%
selectivity ratio [2]: 5.46
Activity [22]: Non-toxic
Activity (Jurkat [23]): 35%
Activity (Jurkat [24]): inactive
Activity (PBMC [25]): Non-toxic
Activity (Jurkat [26]): 15%
inhibition (HeLa): Dose-dependent effect
inhibition (Jurkat [3]): Dose-dependent effect
Activity (Jurkat [27]): Active
Activity [38]: 88%
Activity (Aspergillus flavus): inactive
Activity (PBMC [28]): Non-toxic
Activity (Jurkat [30]): inactive
Activity (Monocyte [31]): inactive
Activity (Monocyte [32]): Active
Activity [33]: Non-toxic
Activity (PBMC [39]): 90%
Activity (PBMC [34]): Non-toxic
Activity (Aspergillus terreus): inactive
Activity (PBMC [40]): 82%

Reference: ChEMBL document CHEMBL3132786, “Cytotoxic, immunomodulatory, antimycotic, and antiviral activities of semisynthetic 14-hydroxyabietane derivatives and triptoquinone C-4 epimers” (Medchemcomm, 2013)
